Measurements reported in patent US7998965B2, “Glutamate aggrecanase inhibitors” (Wyeth LLC, priority 2005, dated 2011).
Like-named read-outs stand apart in the source and are kept apart here.

Key:
recombinant human MMP-2 = biological target: T1, recombinant human MMP-2 (Homo sapiens, UniProt P08253); assay: In vitro fluorescence assay of MMP-2 activity
T1 sequence (P08253 110-660): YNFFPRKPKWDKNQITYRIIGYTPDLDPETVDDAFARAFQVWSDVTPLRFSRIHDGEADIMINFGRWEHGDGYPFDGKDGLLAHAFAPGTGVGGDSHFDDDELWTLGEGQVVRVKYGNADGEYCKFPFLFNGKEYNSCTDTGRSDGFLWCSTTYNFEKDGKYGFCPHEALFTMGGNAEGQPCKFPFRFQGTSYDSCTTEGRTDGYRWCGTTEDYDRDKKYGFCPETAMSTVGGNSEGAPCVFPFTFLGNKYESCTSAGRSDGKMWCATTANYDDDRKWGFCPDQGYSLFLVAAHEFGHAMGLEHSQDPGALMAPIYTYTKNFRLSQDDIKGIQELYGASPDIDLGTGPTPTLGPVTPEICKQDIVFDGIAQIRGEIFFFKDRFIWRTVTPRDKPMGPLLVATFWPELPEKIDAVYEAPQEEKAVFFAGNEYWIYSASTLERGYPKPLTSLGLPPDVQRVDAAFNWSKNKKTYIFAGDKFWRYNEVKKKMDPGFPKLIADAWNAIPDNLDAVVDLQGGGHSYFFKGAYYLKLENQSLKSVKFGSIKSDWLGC
Procedure: A continuous assay was used in which the substrate is a synthetic peptide containing a fluorescent group (7-methoxycoumarin; Mca), which is quenched by energy transfer to a 2,4-dinitrophenyl group. […] The source of enzyme in the assay was the recombinant human MMP-2 (66 kDa; Oncogene Research Products (catalog number PF023 from Calbiochem)). The substrate used was the peptide Mca-PQGL-(3-[2,4-dinitrophenyl]-L-2,3-diaminopropionyl)-AR-OH. The assay buffer consisted of 50 mM Hepes (pH 7.4), 100 mM NaCl, 5 mM CaCl2, and 0.005% Brij-35. […] The plates were then incubated at 30° C. for 15 minutes. The enzymatic reactions were initiated by adding the substrate to a final concentration of 20 μM, and mixing 10 times with a pipette. The final DMSO concentration in the assay was 6.0%.
Plots of the inhibitor concentration vs. the percent inhibition were fit to the following equation: y=(a−d)/[^1+(x/c)^b]+d, a general sigmoidal curve with Hill slope, a to d. x is the inhibitor concentration under test. y is the percent inhibition. a is the limiting response as x approaches zero. As x increases without bound, y tends toward its limit d. c is the inflection point (IC50) for the curve. That is, y is halfway between the lower and upper asymptotes when x=c. b is the slope factor or Hill coefficient.

[1] = biological target: T2, purified recombinant human Aggrecanase-2 (Ag2t-Phe628-Strep) (Homo sapiens, UniProt Q9UNA0); assay: In vitro fluorescence screen for Aggrecanase-2 inhibitors; format: biochemical; conditions: Table 1; read-out: Agg 2 IC50
T2 construct: the form used is denoted as Ag2t-Phe628-Strep (MW=41,737)
T2 sequence (Q9UNA0 262-628): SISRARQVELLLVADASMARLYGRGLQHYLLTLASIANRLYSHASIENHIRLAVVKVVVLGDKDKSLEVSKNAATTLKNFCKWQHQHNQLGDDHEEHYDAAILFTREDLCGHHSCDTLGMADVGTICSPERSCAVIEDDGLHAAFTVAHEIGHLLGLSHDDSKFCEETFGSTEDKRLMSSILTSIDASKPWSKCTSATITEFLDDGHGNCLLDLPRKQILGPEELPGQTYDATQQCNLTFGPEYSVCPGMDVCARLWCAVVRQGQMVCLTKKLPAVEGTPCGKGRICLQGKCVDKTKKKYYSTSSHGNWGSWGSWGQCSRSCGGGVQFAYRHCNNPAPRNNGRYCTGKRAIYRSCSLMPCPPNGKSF

[2] = biological target: T3, purified recombinant human Aggrecanase-1 (rAgg1) (Homo sapiens, UniProt O75173); assay: In vitro fluorescence screen for Aggrecanase-1 inhibitors; format: biochemical; conditions: Table 1; for Ki: enzyme not given, column follows Agg1 IC50, read-out: Ki; for IC50: read-out: Agg1 IC50
T3 sequence (O75173 213-837): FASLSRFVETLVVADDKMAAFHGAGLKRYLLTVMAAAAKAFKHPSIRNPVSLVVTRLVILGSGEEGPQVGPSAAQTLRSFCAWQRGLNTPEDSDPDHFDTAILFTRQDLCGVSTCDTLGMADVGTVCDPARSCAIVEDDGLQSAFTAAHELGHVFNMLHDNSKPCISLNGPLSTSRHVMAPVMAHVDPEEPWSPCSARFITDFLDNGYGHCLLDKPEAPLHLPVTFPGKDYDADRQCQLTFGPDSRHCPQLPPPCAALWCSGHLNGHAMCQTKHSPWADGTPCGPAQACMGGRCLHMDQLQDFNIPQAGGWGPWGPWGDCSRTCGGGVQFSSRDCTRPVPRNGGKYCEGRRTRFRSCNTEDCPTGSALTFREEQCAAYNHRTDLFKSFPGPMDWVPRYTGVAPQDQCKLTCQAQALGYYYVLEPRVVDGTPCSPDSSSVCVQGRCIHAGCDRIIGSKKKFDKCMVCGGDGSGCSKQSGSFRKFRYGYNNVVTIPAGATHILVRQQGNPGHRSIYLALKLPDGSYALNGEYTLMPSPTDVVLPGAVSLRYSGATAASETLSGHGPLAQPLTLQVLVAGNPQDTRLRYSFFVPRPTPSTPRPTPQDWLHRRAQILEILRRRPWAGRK

[3] = biological target: T4, recombinant human catalytic domain of MMP-13 (Homo sapiens, UniProt P45452); assay: In vitro fluorescence assay of MMP-13 activity; format: biochemical; conditions: Table 1; unit inferred
T4 construct: catalytic domain of MMP-13 (165 amino acids, residues 104-268, 19 kDa)

[4] = biological target: T5, recombinant human catalytic domain of MMP-14 (Homo sapiens, UniProt P50281); assay: In vitro fluorescence assay of MMP-14 activity; format: biochemical; conditions: Table 1; for IC50: unit inferred
T5 construct: 177 amino acids corresponding to Tyr89-Gly265 of mature human enzyme; purchased Chemicon International, Inc. CC1041

MMP-1 = biological target: T6, MMP-1 (Homo sapiens, UniProt P03956); assay: MMP-1 of Table 1; format: biochemical; conditions: for IC50: unit inferred; for MMP-1: unit not given
T6 sequence (P03956 100-469): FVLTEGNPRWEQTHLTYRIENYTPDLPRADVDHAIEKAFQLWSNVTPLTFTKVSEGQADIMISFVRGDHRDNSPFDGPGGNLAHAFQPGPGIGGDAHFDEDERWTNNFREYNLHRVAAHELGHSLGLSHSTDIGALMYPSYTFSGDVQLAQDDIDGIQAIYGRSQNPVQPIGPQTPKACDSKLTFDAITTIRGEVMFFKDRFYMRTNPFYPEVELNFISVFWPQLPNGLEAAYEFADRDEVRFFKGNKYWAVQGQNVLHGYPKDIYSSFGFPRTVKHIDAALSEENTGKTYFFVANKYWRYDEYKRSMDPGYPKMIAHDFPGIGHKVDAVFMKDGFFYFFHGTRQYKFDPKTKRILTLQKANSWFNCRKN

Structure (SMILES)	IC50 (recombinant human MMP-2)	IC50 [1]	Ki [2]	IC50 [2]	IC50 [3]	MMP-14 ([4]; unit not given)	IC50 (MMP-1)	IC50 [4]	MMP-1 (MMP-1)	IC50 (recombinant human MMP-2; read-out: MMP-2, Table 1, unit inferred)
CC(C)(C)CNC(=O)[C@H](CCC(=O)O)NC(=O)c1ccc(-c2ccccc2)cc1 [Example 8UUU, N^2-(biphenyl-4-ylcarbonyl)-N^1-(2,2-dimethylpropyl)-L-α-glutamine]	8.9 µM	660 nM	60 nM	61 nM	~50 µM			> 200 µM	no inh	
CCCCCCNC(=O)[C@H](CCC(=O)O)NC(=O)c1ccc(-c2ccccc2)cc1 [Example 8VVV, N^2-(biphenyl-4-ylcarbonyl)-N^1-hexyl-L-α-glutamine]	5.6 µM	420 nM	38 nM	30 nM	~50 µM			> 66.6 µM	no inh	
O=C(O)CC[C@H](NC(=O)c1ccc(-c2ccccc2)cc1)C(=O)NCCCCCO [Example 8WWW, N^2-(biphenyl-4-ylcarbonyl)-N^1-(5-hydroxypentyl)-L-α-glutamine]	7.4 µM	840 nM		36 nM	~200 µM			> 200 µM	no inh	
O=C(O)CC[C@H](NC(=O)c1ccc(-c2ccccc2)cc1)C(=O)NCCCCCCO [Example 8XXX, N^2-(biphenyl-4-ylcarbonyl)-N^1-(6-hydroxyhexyl)-L-α-glutamine]	7.9 µM	930 nM		30 nM	~50 µM			> 200 µM	no inh	
CCCNC(=O)[C@H](CCC(=O)O)NC(=O)c1ccc(-c2ccccc2)cc1 [Example 8YYY, N^2-(biphenyl-4-ylcarbonyl)-N^1-propyl-L-α-glutamine]	9.4 µM	1600 nM		100 nM	> 50 µM			> 200 µM	no inh	
COc1cc(CNC(=O)[C@H](CCC(=O)NO)NC(=O)c2ccc(-c3ccccc3)cc2)cc(OC)c1OC [Example 33A, N^2-(1,1′-biphenyl-4-ylcarbonyl)-N^5-hydroxy-N^1-(3,4,5-trimethoxybenzyl)-L-α-glutamamide]		2.6 nM		< 10 nM	0.032 µM		1750 nM	0.112 µM		0.0047 µM

Further lines, with some results ahead:

IC50 (recombinant human MMP-2)	IC50 [1]	Ki [2]	IC50 [2]	IC50 [3]	MMP-14 ([4]; unit not given)	IC50 (MMP-1)	IC50 [4]	MMP-1 (MMP-1)	Structure (SMILES)	IC50 (recombinant human MMP-2; read-out: MMP-2, Table 1, unit inferred)
9 µM	133 nM	14 nM	< 30 nM	~50 µM	no inh	> 200000 nM			CC(C)(Cc1ccc(Cl)cc1)NC(=O)[C@H](CCC(=O)O)NC(=O)c1ccc(-c2ccccc2)cc1 [Example 8NN, N^2-(biphenyl-4-ylcarbonyl)-N^1-[2-(4-chlorophenyl)-1,1-dimethylethyl]-L-α-glutamine]	
6 µM	85 nM	10 nM	< 30 nM	~50 µM		> 200000 nM	> 66.6 µM		CC(C)(Cc1ccccc1)NC(=O)[C@H](CCC(=O)O)NC(=O)c1ccc(-c2ccccc2)cc1 [Example 8PP, N^2-(biphenyl-4-ylcarbonyl)-N^1-(1,1-dimethyl-2-phenylethyl)-L-α-glutamine]	
12.4 µM	800 nM		100 nM	~50 µM			> 66.6 µM	no inh	O=C(O)CC[C@H](NC(=O)c1ccc(-c2ccccc2)cc1)C(=O)NCCc1ccc(F)cc1 [Example 8SS, N^2-(biphenyl-4-ylcarbonyl)-N^1-[2-(4-fluorophenyl)ethyl]-L-α-glutamine]	
9.1 µM	1900 nM		100 nM	~50 µM			> 66.6 µM	no inh	O=C(O)CC[C@H](NC(=O)c1ccc(-c2ccccc2)cc1)C(=O)NCCc1ccccc1Cl [Example 8VV, N^2-(biphenyl-4-ylcarbonyl)-N^1-[2-(2-chlorophenyl)ethyl]-L-α-glutamine]	
~2.5 µM	971 nM		75 nM	~22 µM			~25 µM	no inh	O=C(O)CC[C@H](NC(=O)c1ccc(-c2ccccc2)cc1)C(=O)NCc1ccc(Oc2ccccc2)cc1 [Example 8W, N^2-(1,1′-biphenyl-4-ylcarbonyl)-N^1-(4-phenoxybenzyl)-L-α-glutamine]	
13.3 µM	350 nM		70 nM	~50 µM			> 66.6 µM	no inh	O=C(O)CC[C@H](NC(=O)c1ccc(-c2ccccc2)cc1)C(=O)NCCc1cccs1 [Example 8WW, N^2-(biphenyl-4-ylcarbonyl)-N^1-[2-(2-thienyl)ethyl]-L-α-glutamine]	
7 µM	1100 nM		100 nM	~67 µM			~25 µM	no inh	COc1cccc(CCNC(=O)[C@H](CCC(=O)O)NC(=O)c2ccc(-c3ccccc3)cc2)c1 [Example 8X, N^2-(1,1′-biphenyl-4-ylcarbonyl)-N^1-[2-(3-methoxyphenyl)ethyl]-L-α-glutamine]	
5.53 µM	520 nM		50 nM	~67 µM			~25 µM	no inh	COc1ccc(CNC(=O)[C@H](CCC(=O)O)NC(=O)c2ccc(-c3ccccc3)cc2)c(OC)c1 [Example 8Y, N^2-(1,1′-biphenyl-4-ylcarbonyl)-N^1-(2,4-dimethoxybenzyl)-L-α-glutamine]	
3.82 µM	680 nM		80 nM	~67 µM			~25 µM	no inh	COc1ccccc1CNC(=O)[C@H](CCC(=O)O)NC(=O)c1ccc(-c2ccccc2)cc1 [Example 8Z, N^2-(1,1′-biphenyl-4-ylcarbonyl)-N^1-(2-methoxybenzyl)-L-α-glutamine]	
0.0033 µM	13.4 nM		< 10 nM	0.052 µM		~1560 nM	0.0736 µM		O=C(CC[C@H](NC(=O)c1ccc(-c2ccccc2)cc1)C(=O)NCc1cccc(OC(F)(F)F)c1)NO [Example 33D, N^2-(1,1′-biphenyl-4-ylcarbonyl)-N^5-hydroxy-N^1-[3-(trifluoromethoxy)benzyl]-L-α-glutamamide]	
